Laboratory results as given in ChEMBL document CHEMBL1124713, “Synthesis of N-[N-(4-deoxy-4-amino-10-methylpteroyl)-4-fluoroglutamyl]- gamma-glutamate, an unusual substrate for folylpoly-gamma-glutamate synthetase and gamma-glutamyl hydrolase” (J Med Chem, 1990).

Experiments:
Type in all cases: ADME
[1] = tested on: FPGS (folylpolyglutamate synthetase); assay: Kinetic constant(Km) was determined in FPGS-catalyzed reaction
[2] = Kinetic constant relative(Vmax) was determined in FPGS-catalyzed reaction
[3] = Ratio of relative Vmax to Km was determined

SMILES: CN(Cc1cnc2nc(N)nc(N)c2n1)c1ccc(C(=O)N[C@@H](CCC(=O)O)C(=O)O)cc1 [METHOTREXATE]
- Km [1]: 42 µM
- Relative Vmax [2]: 1
- Ratio [3]: 0.024

SMILES: CN(Cc1cnc2nc(N)nc(N)c2n1)c1ccc(C(=O)NC(CCC(=O)NC(CCC(=O)O)C(=O)O)C(=O)O)cc1 (centres undefined)
- Km [1]: 38 µM
- Relative Vmax [2]: 0.45
- Ratio [3]: 0.012

SMILES: CN(Cc1cnc2nc(N)nc(N)c2n1)c1ccc(C(=O)NC(CC(F)C(=O)NC(CCC(=O)O)C(=O)O)C(=O)O)cc1 (centres undefined)
- Km [1]: 100 µM
- Relative Vmax [2]: 0.23
- Ratio [3]: 0.0023
